Data published in ChEMBL document CHEMBL1201862, “PubChem BioAssay data set” (2004).
Calls of active or inactive are those of the source.

Columns and labels:
[1] = molecular target: COUP transcription factor 2 (Homo sapiens, UniProt P24468); experiment: Luminescence-based cell-based high throughput dose response assay to identify inhibitors of COUP-TFII (NR2F2).; type: functional;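 further: HEK293 cells transiently cotransfected with COUP-TFII expression vector and reporter; luciferase reporter luminescence driven by COUP-TFII from the pX2-168 reporter plasmid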
[2] = molecular target: Histone-lysine N-methyltransferase NSD2 (Homo sapiens, UniProt O96028); type: biochemical
[3] = molecular target: T1, Replicative DNA helicase DnaB (Mycobacterium tuberculosis, UniProt P9WMR3); experiment: DnaB intein splicing inhibitors, dose response, biochemical, cell-free fluorescence (AID 449749); type: functional
T1 sequence (P9WMR3 whole entry): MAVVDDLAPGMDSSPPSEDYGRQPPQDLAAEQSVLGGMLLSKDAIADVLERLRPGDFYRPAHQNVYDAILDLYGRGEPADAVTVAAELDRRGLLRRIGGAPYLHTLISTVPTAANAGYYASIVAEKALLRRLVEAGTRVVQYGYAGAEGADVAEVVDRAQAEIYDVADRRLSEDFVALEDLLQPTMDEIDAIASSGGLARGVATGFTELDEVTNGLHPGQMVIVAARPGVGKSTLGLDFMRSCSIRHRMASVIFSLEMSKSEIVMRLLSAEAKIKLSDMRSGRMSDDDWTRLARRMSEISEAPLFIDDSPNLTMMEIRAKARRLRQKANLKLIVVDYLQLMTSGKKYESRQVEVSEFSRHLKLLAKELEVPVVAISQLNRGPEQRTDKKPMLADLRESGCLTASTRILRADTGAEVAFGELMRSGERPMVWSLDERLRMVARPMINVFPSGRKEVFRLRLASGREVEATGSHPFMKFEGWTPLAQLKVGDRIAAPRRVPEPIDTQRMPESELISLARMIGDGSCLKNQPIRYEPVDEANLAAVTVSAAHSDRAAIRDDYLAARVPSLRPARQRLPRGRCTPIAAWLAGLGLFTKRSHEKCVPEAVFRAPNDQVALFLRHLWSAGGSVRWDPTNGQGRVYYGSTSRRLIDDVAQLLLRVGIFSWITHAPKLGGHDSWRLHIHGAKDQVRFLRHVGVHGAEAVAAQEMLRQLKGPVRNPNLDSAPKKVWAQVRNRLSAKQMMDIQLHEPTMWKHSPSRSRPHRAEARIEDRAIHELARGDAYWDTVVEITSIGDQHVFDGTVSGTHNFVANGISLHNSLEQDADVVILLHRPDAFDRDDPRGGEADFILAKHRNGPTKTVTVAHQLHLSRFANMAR

[4] = molecular target: DNA (cytosine-5)-methyltransferase 1 (Homo sapiens, UniProt P26358); experiment: DNMT1 methyltransferase inhibitors, confirmation, biochemical, fluorescent molecular beacon (AID 602386); type: functional
Caspase-6 = Caspase-6 (Homo sapiens, UniProt P55212); experiment: human caspase-6 inhibitors, dose response, biochemical, VEID-R110 fluorescence, cherry-pick (AID 720632)
Protein RecA = molecular target: T2, Protein RecA (Mycobacterium tuberculosis, UniProt P9WHJ3); experiment: Fluorescence Cell-Free Homogeneous Dose Retest to Identify Inhibitors of RecA-Intein Splicing Activity. [Related pubchem assays (depositor defined):AID2097, AID2223, AID489010, AID492950]; type: functional
T2 sequence (P9WHJ3 whole entry): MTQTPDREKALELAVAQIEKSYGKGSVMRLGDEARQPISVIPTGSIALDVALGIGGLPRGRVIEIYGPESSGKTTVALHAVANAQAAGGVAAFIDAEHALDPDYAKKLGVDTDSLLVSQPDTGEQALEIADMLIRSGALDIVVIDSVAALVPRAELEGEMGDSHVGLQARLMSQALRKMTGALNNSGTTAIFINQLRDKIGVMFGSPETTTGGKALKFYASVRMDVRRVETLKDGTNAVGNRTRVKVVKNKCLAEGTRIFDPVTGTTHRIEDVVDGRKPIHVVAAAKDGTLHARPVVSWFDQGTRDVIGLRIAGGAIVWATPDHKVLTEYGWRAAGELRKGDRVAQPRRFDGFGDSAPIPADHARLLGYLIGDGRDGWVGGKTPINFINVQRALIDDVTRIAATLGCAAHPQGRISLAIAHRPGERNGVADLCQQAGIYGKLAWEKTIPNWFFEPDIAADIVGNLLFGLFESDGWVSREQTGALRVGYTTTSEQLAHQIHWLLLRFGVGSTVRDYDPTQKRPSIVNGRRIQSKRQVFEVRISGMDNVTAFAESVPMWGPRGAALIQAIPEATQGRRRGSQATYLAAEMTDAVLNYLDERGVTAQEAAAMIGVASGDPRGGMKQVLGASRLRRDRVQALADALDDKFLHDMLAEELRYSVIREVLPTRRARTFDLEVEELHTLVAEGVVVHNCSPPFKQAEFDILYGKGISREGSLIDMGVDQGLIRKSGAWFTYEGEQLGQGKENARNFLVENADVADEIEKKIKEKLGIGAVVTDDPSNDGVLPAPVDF

[5] = molecular target: T3, Probable nicotinate-nucleotide adenylyltransferase (Staphylococcus aureus (strain N315), UniProt P65502); type: functional, Staphylococcus aureus subsp. aureus N315; conditions: read-out: IC50_Mean;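 on IC50 Mean: confirmatory dose-response retesting of NadD inhibitor hits first found in an ultra-high-throughput screen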
[6] = molecular target: Disintegrin and metalloproteinase domain-containing protein 17 (Homo sapiens, UniProt P78536); experiment: ADAM17 protease inhibitors, dose response, counter-screen for ADAM10 exosite inhibitor project, biochemical, quenched FRET substrate (AID 743253)
Streptokinase A = molecular target: T4, Streptokinase A (Streptococcus pyogenes serotype M1, UniProt P10520); experiment: S. pyogenes streptokinase expression inhibitors, potency, dose response, plasminogen activation absorbance, OD405 (AID 1914); type: functional, Streptococcus pyogenes M1 GAS;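 further: secreted streptokinase activity via plasminogen activation per viability signal from cell pellet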
T4 sequence (P10520 whole entry): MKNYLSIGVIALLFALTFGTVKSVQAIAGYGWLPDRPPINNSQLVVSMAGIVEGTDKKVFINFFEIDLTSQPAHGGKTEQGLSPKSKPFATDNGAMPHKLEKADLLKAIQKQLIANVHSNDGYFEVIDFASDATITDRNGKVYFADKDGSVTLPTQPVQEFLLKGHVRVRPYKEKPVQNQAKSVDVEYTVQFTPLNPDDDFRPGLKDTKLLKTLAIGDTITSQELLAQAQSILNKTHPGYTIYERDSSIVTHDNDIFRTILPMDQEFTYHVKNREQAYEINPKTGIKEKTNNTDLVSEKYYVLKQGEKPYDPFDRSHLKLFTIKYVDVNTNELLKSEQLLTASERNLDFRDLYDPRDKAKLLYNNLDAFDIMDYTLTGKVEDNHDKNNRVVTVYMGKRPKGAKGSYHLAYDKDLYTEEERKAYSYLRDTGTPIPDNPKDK

[7] = tested on: Streptococcus sp. 'group A'; experiment: growth inhibition of control SK(-) GAS strain, dose response, counter-screen for streptokinase expression inhibitor project, luminescence, kanamycin, BacTiterGlo, confirmation (AID 1900); type: functional, organism-based
Streptococcus = experiment: Group A Streptococcus viability loss, dose response, counter-screen for streptokinase expression inhibitor project, luminescence, BacTiterGlo (AID 1915); type: functional, organism-based;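 further: potency for reduction of bacterial viability or growth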
[8] = C. albicans growth with fluconazole, confirmation, fluorescence, retest (AID 2467); type: functional, cell-based
[9] = molecular target: T3, Probable nicotinate-nucleotide adenylyltransferase; type: functional, Staphylococcus aureus subsp. aureus N315
[10] = NIH-3T3 fibroblast cytotoxicity, dose response, cytotoxicity control, cell-based, fluorescence, Alamar Blue, secondary assay (AID 2327); type: functional;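 further: NIH-3T3 mouse fibroblasts cultured with fluconazole at 8 µg/mL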
[11] = molecular target: T5, Oxysterols receptor LXR-beta (Homo sapiens, UniProt P55055); type: functional, cell-based;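 further: agonist activity at LXR measured by a cell-based luminescence readout across a dose range, run as a counterscreen for daf-12 agonists; HEK293 cells with Gal4-LXR fusion and GAL4-driven luciferase reporter; potency for activation of Gal4-LXR reporter so compounds are agonists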
T5 sequence (P55055 whole entry): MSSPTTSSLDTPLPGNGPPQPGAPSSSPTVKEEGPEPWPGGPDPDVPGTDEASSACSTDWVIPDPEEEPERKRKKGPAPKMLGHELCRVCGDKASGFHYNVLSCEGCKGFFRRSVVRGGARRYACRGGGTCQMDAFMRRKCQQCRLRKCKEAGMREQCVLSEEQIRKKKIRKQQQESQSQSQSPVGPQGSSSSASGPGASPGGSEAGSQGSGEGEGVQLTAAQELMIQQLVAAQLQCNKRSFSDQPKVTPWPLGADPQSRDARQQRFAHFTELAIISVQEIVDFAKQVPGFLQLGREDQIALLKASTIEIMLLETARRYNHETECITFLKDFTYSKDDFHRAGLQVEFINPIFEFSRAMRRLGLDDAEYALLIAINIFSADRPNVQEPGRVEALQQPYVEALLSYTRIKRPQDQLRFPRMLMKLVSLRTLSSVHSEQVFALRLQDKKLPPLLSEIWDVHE

[12] = molecular target: T6, Heat shock factor protein 1 (Mus musculus, UniProt P38532); experiment: inhibition of MG132-induced HSE-luciferase signal, confirmation, cell-based, NIH3T3, luminescence, dose retest (AID 2382); type: functional;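 further: NIH3T3 fibroblasts with HSF1-driven luciferase reporter stressed by proteasome inhibitor MG132; luminescence from HSF1-driven luciferase expression after 8 hours of MG132 stress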
T6 sequence (P38532 whole entry): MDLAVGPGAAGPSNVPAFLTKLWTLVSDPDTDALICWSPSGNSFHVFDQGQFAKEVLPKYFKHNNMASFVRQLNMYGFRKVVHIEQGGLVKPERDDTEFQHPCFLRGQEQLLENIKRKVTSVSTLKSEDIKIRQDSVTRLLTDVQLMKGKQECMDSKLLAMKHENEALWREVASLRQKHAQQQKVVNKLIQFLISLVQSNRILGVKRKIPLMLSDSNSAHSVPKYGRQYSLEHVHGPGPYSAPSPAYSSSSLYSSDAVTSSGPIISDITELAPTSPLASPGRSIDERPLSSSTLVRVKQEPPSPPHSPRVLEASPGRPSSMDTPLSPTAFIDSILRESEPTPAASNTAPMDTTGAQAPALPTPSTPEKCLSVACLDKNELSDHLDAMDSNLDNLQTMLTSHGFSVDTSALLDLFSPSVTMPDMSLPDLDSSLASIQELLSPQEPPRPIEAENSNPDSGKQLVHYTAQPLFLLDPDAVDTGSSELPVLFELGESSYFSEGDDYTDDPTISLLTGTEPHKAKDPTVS

[13] = inhibitors of SNCA 5'UTR-driven reporter translation, confirmation, H4 neuroglioma cells, luminescence (AID 1988); type: functional, cell-based
[14] = HEK293 cell cytotoxicity, dose response, cytotoxicity control, plate reader, cherry-picked samples (AID 743446); type: functional, cell-based
[15] = MC4R antagonists, dose response, counter-screen for LGR2 antagonist project, cell-based, plate reader, cherry pick (AID 743444); type: functional;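 further: transfected HEK 293 cells stimulated with alpha-MSH peptide; potency of inhibitors of the alpha-MSH evoked signal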
[16] = LGR2 antagonists, dose response, cell-based, HEK293, CRE-luciferase reporter, cherry pick, set 2 (AID 743343); type: functional;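 further: transfected cells were stimulated with diluted bursicon conditioned medium after compound addition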
[17] = A549 cell cytotoxicity, dose response, cytotoxicity control, plate reader, cherry-pick, antagonist series (AID 743412); type: functional, cell-based
[18] = inhibitors of firefly luciferase expression or activity, dose response, H4 neuroglioma cells, luminescence (AID 1990); type: functional, cell-based
[19] = HepG2 cell cytotoxicity, dose response, cytotoxicity control, plate reader, cherry-pick, antagonist series (AID 743416); type: functional, cell-based
[20] = Luminescence Cell-Based Dose Response HTS to Identify Inhibitors of 5'UTR Stem-Loop Driven Prion Protein mRNA Translation in H4 Neuroglioblastoma Cells. [Related pubchem assays: 1827 (Project Summary), 1813 (Primary HTS)]; type: functional

T3 sequence (P65502 whole entry, the tested form may be a part): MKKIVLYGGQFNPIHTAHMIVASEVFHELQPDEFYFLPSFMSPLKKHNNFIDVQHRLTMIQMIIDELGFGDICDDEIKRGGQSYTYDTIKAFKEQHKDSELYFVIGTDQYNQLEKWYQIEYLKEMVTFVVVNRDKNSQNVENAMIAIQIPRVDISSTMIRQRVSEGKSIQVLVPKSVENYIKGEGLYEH
Sequence of DNA (cytosine-5)-methyltransferase 1 (P26358 whole entry): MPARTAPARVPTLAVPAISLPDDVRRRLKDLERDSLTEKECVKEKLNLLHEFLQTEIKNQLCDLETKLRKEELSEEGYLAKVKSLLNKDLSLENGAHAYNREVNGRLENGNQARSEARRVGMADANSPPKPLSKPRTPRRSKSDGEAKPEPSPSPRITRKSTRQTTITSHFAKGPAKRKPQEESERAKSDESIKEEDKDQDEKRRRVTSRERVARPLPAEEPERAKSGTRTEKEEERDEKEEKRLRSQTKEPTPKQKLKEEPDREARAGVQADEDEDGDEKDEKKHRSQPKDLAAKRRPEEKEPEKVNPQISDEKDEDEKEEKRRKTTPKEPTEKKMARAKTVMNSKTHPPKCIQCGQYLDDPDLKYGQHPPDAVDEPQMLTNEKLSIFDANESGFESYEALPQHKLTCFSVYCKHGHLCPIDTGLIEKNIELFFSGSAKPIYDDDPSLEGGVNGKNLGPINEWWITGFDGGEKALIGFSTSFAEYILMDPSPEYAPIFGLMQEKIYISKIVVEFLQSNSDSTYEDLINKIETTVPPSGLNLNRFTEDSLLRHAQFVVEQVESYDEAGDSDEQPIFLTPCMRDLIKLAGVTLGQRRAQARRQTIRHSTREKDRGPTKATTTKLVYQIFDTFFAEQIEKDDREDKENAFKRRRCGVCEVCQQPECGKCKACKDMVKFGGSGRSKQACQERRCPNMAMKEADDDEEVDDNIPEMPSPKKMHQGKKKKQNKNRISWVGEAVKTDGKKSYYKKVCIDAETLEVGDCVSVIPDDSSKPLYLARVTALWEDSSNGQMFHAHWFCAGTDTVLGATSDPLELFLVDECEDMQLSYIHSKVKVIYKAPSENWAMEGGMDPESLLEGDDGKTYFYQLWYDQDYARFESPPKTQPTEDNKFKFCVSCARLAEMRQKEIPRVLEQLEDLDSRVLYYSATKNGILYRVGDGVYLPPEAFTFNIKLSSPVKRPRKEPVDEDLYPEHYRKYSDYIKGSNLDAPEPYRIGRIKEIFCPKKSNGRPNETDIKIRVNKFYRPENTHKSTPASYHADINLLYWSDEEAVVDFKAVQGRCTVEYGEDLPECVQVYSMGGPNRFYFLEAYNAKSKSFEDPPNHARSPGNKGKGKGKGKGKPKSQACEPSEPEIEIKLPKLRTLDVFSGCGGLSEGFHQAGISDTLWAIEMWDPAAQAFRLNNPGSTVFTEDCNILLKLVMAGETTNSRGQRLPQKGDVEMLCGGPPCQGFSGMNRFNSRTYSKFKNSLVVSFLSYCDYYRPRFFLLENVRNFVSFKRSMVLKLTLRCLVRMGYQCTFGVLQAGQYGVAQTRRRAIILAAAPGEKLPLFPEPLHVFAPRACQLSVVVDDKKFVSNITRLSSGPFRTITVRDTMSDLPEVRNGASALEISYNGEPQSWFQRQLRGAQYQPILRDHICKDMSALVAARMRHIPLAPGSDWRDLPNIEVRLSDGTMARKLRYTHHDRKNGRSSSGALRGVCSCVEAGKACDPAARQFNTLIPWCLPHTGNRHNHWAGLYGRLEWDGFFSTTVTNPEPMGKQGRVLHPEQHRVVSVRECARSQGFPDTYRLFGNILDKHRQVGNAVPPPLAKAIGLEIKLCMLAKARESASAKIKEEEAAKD
Sequence of COUP transcription factor 2 (P24468 whole entry): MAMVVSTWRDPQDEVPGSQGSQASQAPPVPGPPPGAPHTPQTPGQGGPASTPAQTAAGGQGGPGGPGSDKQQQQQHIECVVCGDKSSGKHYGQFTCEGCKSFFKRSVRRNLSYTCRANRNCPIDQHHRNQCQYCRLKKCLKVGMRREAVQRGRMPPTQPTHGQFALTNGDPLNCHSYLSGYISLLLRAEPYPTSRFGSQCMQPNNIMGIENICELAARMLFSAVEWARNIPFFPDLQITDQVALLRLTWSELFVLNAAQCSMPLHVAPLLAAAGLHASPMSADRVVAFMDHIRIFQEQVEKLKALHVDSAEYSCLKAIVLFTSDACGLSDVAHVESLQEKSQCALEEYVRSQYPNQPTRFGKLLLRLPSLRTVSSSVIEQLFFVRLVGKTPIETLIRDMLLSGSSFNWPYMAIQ
Sequence of Disintegrin and metalloproteinase domain-containing protein 17 (P78536 whole entry, the tested form may be a part): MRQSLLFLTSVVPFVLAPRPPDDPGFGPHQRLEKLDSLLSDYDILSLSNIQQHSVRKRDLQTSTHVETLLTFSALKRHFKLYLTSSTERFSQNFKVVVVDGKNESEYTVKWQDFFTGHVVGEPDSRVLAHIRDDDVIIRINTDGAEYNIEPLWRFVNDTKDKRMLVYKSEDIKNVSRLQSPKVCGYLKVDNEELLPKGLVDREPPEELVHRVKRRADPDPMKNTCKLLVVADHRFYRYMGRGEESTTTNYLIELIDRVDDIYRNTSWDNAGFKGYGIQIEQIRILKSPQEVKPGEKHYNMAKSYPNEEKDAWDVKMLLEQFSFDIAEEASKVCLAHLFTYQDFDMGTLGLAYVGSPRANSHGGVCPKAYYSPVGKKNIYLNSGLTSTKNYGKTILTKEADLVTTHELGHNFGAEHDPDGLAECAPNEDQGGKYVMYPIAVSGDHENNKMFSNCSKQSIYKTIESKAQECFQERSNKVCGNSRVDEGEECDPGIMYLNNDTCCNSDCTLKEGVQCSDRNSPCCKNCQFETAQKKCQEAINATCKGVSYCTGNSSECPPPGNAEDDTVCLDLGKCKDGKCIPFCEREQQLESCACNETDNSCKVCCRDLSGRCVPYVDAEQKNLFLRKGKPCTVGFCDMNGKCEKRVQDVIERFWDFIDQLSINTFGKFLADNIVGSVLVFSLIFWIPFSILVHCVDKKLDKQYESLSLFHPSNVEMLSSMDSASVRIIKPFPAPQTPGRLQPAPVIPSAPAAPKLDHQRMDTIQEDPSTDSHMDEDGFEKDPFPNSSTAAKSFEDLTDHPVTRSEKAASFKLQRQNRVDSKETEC
Sequence of Histone-lysine N-methyltransferase NSD2 (O96028 whole entry): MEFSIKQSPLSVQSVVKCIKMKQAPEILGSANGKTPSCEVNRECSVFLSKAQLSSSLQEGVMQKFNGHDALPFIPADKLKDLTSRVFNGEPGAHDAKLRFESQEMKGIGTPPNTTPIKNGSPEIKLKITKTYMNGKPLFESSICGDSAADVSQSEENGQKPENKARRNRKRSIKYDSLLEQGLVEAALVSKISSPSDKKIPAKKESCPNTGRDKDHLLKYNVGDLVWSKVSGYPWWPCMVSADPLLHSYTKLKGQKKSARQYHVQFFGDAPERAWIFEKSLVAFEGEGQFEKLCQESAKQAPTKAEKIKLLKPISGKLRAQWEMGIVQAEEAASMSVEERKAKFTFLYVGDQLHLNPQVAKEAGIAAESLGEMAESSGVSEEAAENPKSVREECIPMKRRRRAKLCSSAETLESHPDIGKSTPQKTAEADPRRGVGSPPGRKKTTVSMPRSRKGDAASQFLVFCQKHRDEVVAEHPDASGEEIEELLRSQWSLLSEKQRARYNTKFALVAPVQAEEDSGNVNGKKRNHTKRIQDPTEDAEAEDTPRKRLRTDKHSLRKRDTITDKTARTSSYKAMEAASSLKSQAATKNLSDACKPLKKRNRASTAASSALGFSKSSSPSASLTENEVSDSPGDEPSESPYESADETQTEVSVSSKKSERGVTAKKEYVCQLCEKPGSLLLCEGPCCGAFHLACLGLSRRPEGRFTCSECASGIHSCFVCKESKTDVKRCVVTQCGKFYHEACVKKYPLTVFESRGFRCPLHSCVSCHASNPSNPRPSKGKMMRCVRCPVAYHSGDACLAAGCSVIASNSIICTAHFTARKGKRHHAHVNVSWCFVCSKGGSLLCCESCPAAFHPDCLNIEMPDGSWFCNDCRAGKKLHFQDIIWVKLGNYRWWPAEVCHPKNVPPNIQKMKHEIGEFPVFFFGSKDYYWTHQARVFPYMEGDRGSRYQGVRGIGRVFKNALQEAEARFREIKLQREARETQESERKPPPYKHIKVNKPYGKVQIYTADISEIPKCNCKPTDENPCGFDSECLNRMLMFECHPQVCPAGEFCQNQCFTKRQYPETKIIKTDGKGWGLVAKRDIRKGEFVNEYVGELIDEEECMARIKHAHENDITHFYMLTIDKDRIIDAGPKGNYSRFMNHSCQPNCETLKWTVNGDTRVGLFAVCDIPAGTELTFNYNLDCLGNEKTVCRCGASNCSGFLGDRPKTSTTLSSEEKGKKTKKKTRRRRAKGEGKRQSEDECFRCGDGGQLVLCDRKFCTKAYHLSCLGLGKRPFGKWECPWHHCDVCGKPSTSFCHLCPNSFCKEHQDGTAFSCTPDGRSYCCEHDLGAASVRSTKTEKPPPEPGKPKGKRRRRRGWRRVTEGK
Sequence of Caspase-6 (P55212 24-179 limits assumed): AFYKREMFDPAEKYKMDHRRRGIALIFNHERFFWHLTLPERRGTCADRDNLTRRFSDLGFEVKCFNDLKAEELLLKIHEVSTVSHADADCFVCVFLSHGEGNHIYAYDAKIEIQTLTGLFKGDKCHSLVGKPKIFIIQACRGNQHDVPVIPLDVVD
Sequence of Caspase-6 (P55212 194-293 limits assumed): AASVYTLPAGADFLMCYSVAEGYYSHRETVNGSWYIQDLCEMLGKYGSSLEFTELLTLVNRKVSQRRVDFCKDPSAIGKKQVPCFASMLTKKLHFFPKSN

For NC(=O)[C@H]1CC2(CC(c3cccc(NC(=O)COc4ccc(Cl)cc4)c3)=NO2)CN1C(=O)Cc1ccc([N+](=O)[O-])cc1 (stereo not given in full), the IC50 [1] was 5.32 µM (active).
In the case of NS(=O)(=O)c1ccc(N=Nc2ccc(O)nc2O)cc1, the AC50 [2] is reported as > 20 µM (inactive), the AC50 [3] is reported as 53.2 µM (active) and the IC50 [4] is reported as 7.65 µM (active). The AC50 (Caspase-6) was 2.07 µM (active) and the EC50 (Protein RecA) was 4.4 µM (active).
In the case of O=C(NNC(=O)c1cc(-c2ccc(Cl)cc2)nc2ccccc12)c1csc(N2CCOCC2)n1, the IC50 [5] is reported as 58 µM (active), the IC50 [6] is reported as > 69.5 µM (inactive) and the EC50 (Streptokinase A) is reported as > 150 µM (not active). For the same compound, the EC50 [7] was 20 µM (active), the EC50 (Streptococcus) was 76.8 µM (active) and the EC50 [8] was 0.775 µM (active). For the same compound, the IC50 [9] was 20.8 µM (active) and the EC50 [10] was > 150 µM (inactive).
For Cc1cccc(/C=C\c2nc(O)c3ccccc3n2)c1, the EC50 [11] was > 67.5 µM (inactive).
With c1c2c(cc3sc(N4CCCCC4)nc13)OCCO2 the EC50 [12] was 11.5 µM (active), the EC50 [13] was 8.83 µM (active) and the AC50 [14] was 13.6 µM (active). For the same compound, the AC50 [15] was 1.97 µM (active), the AC50 [16] was 1.58 µM (active) and the AC50 [17] was 32.9 µM (active). For the same compound, the EC50 [18] was > 120 µM (not active), the AC50 [19] was 30.7 µM (active) and the EC50 [20] was 8.9 µM (active).
With CCOC(=O)c1csc(-c2sccc2Br)n1 the EC50 [11] was > 67.6 µM (inactive).
